# Assay results from paper PMC8343220, “The selectivity of α‐adrenoceptor agonists for the human α1A, α1B, and α1D‐adrenoceptors” (Pharmacology Research & Perspectives, 2021).
# pEC50, pKd: −log10 of the molar value. Several values for one entry are separate records, joined by “and”; a condition that tells them apart may be missing. Identical values can stand only once. Like-named read-outs stand apart in the source and are kept apart here.
# Columns and labels:
# [1] = test system: parental CHO cell line without any transfected receptors; assay: ERK1/2‐phosphorylation, parent CHO cells without transfected receptors; type: cell-based, Chinese hamster; conditions: CHO cells without transfected receptors; maximal response as % of PDBu (10μM) response; mean ± s.e.m.
# human α1A‐adrenoceptor [2] = target: T1, human α1A‐adrenoceptor (Homo sapiens, UniProt P35348); assay: ^3H‐cAMP accumulation in the presence of 10 μM forskolin, CHO‐α1A cells; type: cell-based
# T1 construct: expressed in transfected cells; host or cells: CHO-K1
# T1 sequence (P35348 1-466): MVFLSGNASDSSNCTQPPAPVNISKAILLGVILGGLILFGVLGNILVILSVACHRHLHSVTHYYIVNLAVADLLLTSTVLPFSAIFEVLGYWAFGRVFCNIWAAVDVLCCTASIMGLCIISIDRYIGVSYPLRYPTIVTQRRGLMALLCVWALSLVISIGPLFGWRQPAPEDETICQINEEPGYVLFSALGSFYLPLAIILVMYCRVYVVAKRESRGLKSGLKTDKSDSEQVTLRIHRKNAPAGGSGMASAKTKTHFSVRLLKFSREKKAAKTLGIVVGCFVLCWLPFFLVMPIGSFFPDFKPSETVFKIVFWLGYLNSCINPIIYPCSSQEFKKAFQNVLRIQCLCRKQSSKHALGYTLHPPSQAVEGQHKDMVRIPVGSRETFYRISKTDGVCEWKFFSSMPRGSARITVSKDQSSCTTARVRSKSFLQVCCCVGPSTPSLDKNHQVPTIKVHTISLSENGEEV
# [3] = target: T2, human α1D‐adrenoceptor (full length) (Homo sapiens, UniProt P25100); assay: ^3H‐cAMP accumulation, CHO‐α1D cells; type: cell-based; conditions: cAMP accumulation without forskolin
# T2 construct: human α1D‐adrenoceptor (full length) were used; expressed in transfected cells; host or cells: CHO-K1
# T2 sequence (P25100 1-572): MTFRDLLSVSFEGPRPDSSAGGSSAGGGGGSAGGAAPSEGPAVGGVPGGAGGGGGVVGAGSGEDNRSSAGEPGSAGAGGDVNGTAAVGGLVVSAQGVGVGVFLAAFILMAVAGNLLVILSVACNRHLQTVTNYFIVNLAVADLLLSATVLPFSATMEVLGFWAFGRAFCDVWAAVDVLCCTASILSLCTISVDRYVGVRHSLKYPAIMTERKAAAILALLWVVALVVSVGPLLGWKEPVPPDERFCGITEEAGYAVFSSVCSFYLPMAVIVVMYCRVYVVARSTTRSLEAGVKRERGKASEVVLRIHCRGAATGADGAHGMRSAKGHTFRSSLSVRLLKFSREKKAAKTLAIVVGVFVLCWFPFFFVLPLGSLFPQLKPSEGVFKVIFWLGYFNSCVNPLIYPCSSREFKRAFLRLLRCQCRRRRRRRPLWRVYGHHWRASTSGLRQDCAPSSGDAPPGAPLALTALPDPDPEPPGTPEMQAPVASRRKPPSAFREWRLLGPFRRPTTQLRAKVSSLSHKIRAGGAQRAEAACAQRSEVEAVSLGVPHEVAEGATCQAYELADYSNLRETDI
# human α1A‐adrenoceptor [4] = target: T1, human α1A‐adrenoceptor; assay: Intracellular free calcium mobilization, CHO‐α1A cells; type: cell-based; conditions: CHO‐α1A cells, maximal response as % of 10 µM ionomycin
# [5] = test system: parental CHO cell line without any transfected receptors; assay: Forskolin‐stimulated cAMP accumulation, parent CHO cells without transfected receptors; type: cell-based, Chinese hamster; conditions: CHO cells without transfected receptors; in presence of forskolin
# [6] = target: T2, human α1D‐adrenoceptor (full length); assay: Intracellular free calcium mobilization, CHO‐α1D cells; type: cell-based; conditions: CHO‐α1D cells; for EC50: log values given negative, read-out: Intracellular calcium release Log EC50 (converted)
# human α1A‐adrenoceptor [7] = target: T1, human α1A‐adrenoceptor; assay: ERK1/2‐phosphorylation (Surefire Alphascreen), CHO‐α1A cells; type: cell-based; conditions: CHO‐α1A cells; % of 10 µM PDBu; ^a bi‐phasic: initial stimulatory part
# [8] = target: T2, human α1D‐adrenoceptor (full length); assay: ^3H‐cAMP accumulation in the presence of 10 μM forskolin, CHO‐α1D cells; type: cell-based; conditions: CHO‐α1D cells; in presence of forskolin; log values given negative
# human α1B‐adrenoceptor [9] = target: T3, human α1B‐adrenoceptor (Homo sapiens, UniProt P35368); assay: ERK1/2‐phosphorylation (Surefire Alphascreen), CHO‐α1B cells; type: cell-based
# T3 construct: expressed in transfected cells; host or cells: CHO-K1
# T3 sequence (P35368 1-520): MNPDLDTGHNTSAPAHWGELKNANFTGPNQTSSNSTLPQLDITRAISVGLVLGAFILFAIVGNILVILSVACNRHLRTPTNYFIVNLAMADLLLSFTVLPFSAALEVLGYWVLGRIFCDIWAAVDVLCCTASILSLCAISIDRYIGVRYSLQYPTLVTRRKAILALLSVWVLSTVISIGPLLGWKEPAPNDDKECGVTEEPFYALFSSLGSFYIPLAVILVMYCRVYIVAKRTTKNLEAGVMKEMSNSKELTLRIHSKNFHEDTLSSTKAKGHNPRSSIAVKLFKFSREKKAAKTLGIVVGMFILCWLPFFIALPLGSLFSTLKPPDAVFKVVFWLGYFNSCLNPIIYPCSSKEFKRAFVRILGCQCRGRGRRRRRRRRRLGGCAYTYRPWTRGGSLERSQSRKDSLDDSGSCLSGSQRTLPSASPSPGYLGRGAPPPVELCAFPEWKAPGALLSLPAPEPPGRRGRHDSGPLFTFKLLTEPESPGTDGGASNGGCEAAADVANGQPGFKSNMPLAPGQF
# [10] = target: T2, human α1D‐adrenoceptor (full length); assay: ^3H‐prazosin whole‐cell radioligand binding, CHO‐α1D cells; conditions: CHO‐α1D cells, given as log KD (negative), mean ± SEM, 'early plateau' = specific binding not fully inhibited
# [11] = target: T2, human α1D‐adrenoceptor (full length); assay: ERK1/2‐phosphorylation (Surefire Alphascreen), CHO‐α1D cells; type: cell-based; conditions: CHO‐α1D cells; for EC50: log values given negative, read-out: ERK1/2‐phosphorylation Log EC50 (converted); for ERK1/2‐phosphorylation % PDBu: maximal response as % of PDBu
# human α1A‐adrenoceptor [12] = target: T1, human α1A‐adrenoceptor; assay: ^3H‐cAMP accumulation, CHO‐α1A cells; type: cell-based; conditions: CHO‐α1A cells; % of 10 µM forskolin response
# human α1B‐adrenoceptor [13] = target: T3, human α1B‐adrenoceptor; assay: ^3H‐cAMP accumulation, CHO‐α1B cells; type: cell-based; conditions: CHO‐α1B cells; % forskolin maximum response
# human α1B‐adrenoceptor [14] = target: T3, human α1B‐adrenoceptor; assay: Intracellular free calcium mobilization, CHO‐α1B cells; type: cell-based; conditions: CHO‐α1B cells; maximal response as % of 10 µM ionomycin response
"Gi‐mediated inhibition of forskolin‐stimulated cAMP, CHO‐α1A cells (human α1A‐adrenoceptor [2])",Intracellular calcium release % ionomycin (human α1A‐adrenoceptor [4]; listed as adrenaline) [%],Intracellular calcium release % ionomycin ([6]; maximal response as % of 10 µM ionomycin) [%],ERK1/2‐phosphorylation % PDBu (human α1B‐adrenoceptor [9]) [%],"pKd ([10]; Log KD α1D, ^3H‐prazosin whole cell binding)",Compound,ERK1/2-phosphorylation % PDBu [1],cAMP Log EC50 [3],Intracellular calcium release % ionomycin (human α1A‐adrenoceptor [4]) [%],cAMP accumulation (in presence of forskolin) Log EC50 [5],EC50 [6] [nM],ERK1/2‐phosphorylation % PDBu (human α1A‐adrenoceptor [7]),pEC50 [8],EC50 [11] [nM],ERK1/2‐phosphorylation % PDBu [11] [%],cAMP accumulation % forskolin (human α1A‐adrenoceptor [12]),cAMP accumulation % forskolin (human α1B‐adrenoceptor [13]) [%],Intracellular calcium release % ionomycin (human α1B‐adrenoceptor [14]) [%],"ERK1/2‐phosphorylation % PDBu (human α1B‐adrenoceptor [9]; CHO‐α1B cells, maximal response as % PDBu response, for bi‐phasic responses the initial stimulatory part) [%]",pKd [10]
did not inhibit cAMP accumulation,58.9,30.3 ± 2.3,76.6 ± 9.0,5.19,CNC[C@H](O)c1ccc(O)c(O)c1 [Adrenaline],No response,No response,58.9 ± 3.7,No response,18.2,71.3% and 71.3 ± 7.7%,6.06,182,32.2 ± 4.0,164% and 164.0 ± 7.3%,172.1 ± 11.3,,,
,,,,,CNC[C@H](O)c1cccc(O)c1 [R‐phenylephrine],,No response,58.3 ± 2.9,,63.1,84.5 ± 4.5%,6.77,676,15.8 ± 2.9,132.5 ± 4.5%,86.2 ± 5.3,67.0 ± 3.3,77.0 ± 4.8,4.65
